Experiment: In vivo stability: half-life for blood clearance after intravenous injection, venous blood analysed by LC-MS/MS
Conditions: i.v. 1-10 mg/kg, male Sprague-Dawley rats; for t1/2 (dihydro), half-life for blood clearance: corresponding dihydro-derivative formed spontaneously in vivo from the injected tetrahydro-compound, venous blood; for t1/2 (tetrahydro), half-life for blood clearance: injected tetrahydro-compound, venous blood up to eight hours
Description: The compounds 4-N-cyclohexylmethylamino-5,6,7,8-tetrahydrobiopterin (compound A), 2-amino-4-piperidino-6-phenyl-(R,S)-5,6,7,8-tetrahydropteridin (compound B) and 2-amino-4-di-n-propylamino-6-(4-methoxyphenyl)-(R,S)-5,6,7,8-tetrahydropteridin (compound C) were intravenously injected into male Sprague-Dawley rats (1-10 mg/kg). Venous blood samples were taken up to eight hours after the injections and analyzed for the injected tetrahydro-compounds and for their corresponding dihydro-derivatives, which are spontaneously formed in vivo, by LC-MS/MS.

| Compound | t1/2 (dihydro), half-life for blood clearance [min] | t1/2 (tetrahydro), half-life for blood clearance |
| --- | --- | --- |
| 2-amino-4-di-n-propylamino-6-(4-methoxyphenyl)-(R,S)-5,6,7,8-tetrahydropteridin [Compound C] | ~30 | <<5 min |
| Nc1nc2c(c(N3CCCCC3)n1)NC(c1ccccc1)CN2 (racemic) [Compound B, 2-amino-4-piperidino-6-phenyl-(R,S)-5,6,7,8-tetrahydropteridin] | ~20 | <<5 min |
| CC(O)C(O)C1CNc2nc(N)nc(NCC3CCCCC3)c2N1 (stereo not drawn) [Compound A, 4-N-cyclohexylmethylamino-5,6,7,8-tetrahydrobiopterin] | 48 | <<5 min |
